{"source": "patent US20130123355A1", "about": "“Fatty acids and metal ions compositions and uses thereof” (priority 2011, published 2013)", "key": {"[1]": {"tested_on": "Patients presenting symptoms of depression", "assay": "Hamilton Depression Rating scale and Beck Depression Inventory in depression", "assay_type": "in vivo, human", "settings": "with standard of care", "method": "Patients presenting symptoms of depression, in addition to being provided standard of care for depression, are prescribed Mg-DHA or Mg Citrate capsules formulated to provide 150 mg of elemental magnesium, or DHA capsules for two weeks when recovery from depression is assessed.\nPatients presenting symptoms of depression, in addition to being provided standard of care for depression, are prescribed Mg-DHA-LysoPC or Mg Citrate capsules formulated to provide 150 mg of elemental magnesium, or DHA-LysoPC capsules for two weeks when recovery from depression is assessed.\nPatients presenting symptoms of depression, in addition to being provided standard of care for depression, are prescribed Mg-EPA or Mg Citrate capsules formulated to provide 150 mg of elemental magnesium, or EPA capsules for two weeks when recovery from depression is assessed.\n(§1) Patients presenting symptoms of depression, in addition to being provided standard of care for depression, are prescribed Zn-DHA or zinc gluconate capsules formulated to provide a daily dosage of 30 mg of elemental zinc, or DHA capsules for two weeks when recovery from depression is assessed.\nas §1, with “Zn-DHA-LysoPC” for “Zn-DHA”, “DHA-LysoPC” for “DHA”\nPatients presenting symptoms of depression, in addition to being provided standard of care for depression, are prescribed Zn-EPA or zinc gluconate capsules that provide a daily dosage of 30 mg of elemental Zn, or EPA capsules for two weeks when recovery from depression is assessed."}, "[2]": {"tested_on": "rats", "assay": "novel-object-location (NOL) tests", "assay_type": "in vivo", "settings": "diet", "method": "Mg-DHA composition is provided as supplement in standard rat feed. On an average, rats consume about 50 mg/Kg/day of elemental Mg, on a feeding schedule so as to maintain 85% of its free-feeding weight. In the control group, rats are fed either DHA or magnesium citrate (Mg Citrate) supplemented diet on schedule similar to test group. After habituation to the apparatus and pre-training, each rat undergoes 4 trials of standard T-maze test (Shoji et al, J. Vis. Exp. (60), e3300, DOI: 10.3791/3300 (2012)) on day 1 or day 21 of Mg-DHA, Mg Citrate, or DHA feeding. Rats are subject to either forced alternation task or left-right discrimination task. Behaviors in the T-maze apparatus is recorded and statistically analyzed by two way repeated measures analysis of variance. […] In another set of experiments, rats fed with DHA, Mg Citrate, or Mg-DHA for 21 days are subject to novel-object-location (NOL) tests.\nMg-DHA composition is provided as supplement in standard rat feed. On an average, rats consume about 50 mg/Kg/day of elemental Mg, on a feeding schedule so as to maintain 85% of its free-feeding weight. In the control group, rats are fed DHA-LysoPC or Mg Citrate supplemented diet on schedule similar to test group. After habituation to the apparatus and pre-training, each rat undergoes 4 trials of standard T-maze test (Shoji et al, J. Vis. Exp. (60), e3300, DOI: 10.3791/3300 (2012)) on day 1 or day 21 of Mg-DHA-LysoPC, Mg Citrate or DHA-LysoPC feeding. Rats are subjected to either forced alternation task or left-right discrimination task. Behaviors in the T-maze apparatus is recorded and statistically analyzed by two way repeated measures analysis of variance. […] In another set of experiments, rats fed with Mg Citrate, DHA-LysoPC, or Mg-DHA-LysoPC for 21 days are subjected to novel-object-location (NOL) tests.\nMg-EPA composition is provided as supplement in standard rat feed. On an average, rats consume about 50 mg/Kg/day of elemental Mg, on a feeding schedule so as to maintain 85% of its free-feeding weight. In the control group, rats are fed EPA or Mg Citrate supplemented diet on scheduled similar to test group. After habituation to the apparatus and pre-training, each rat undergoes 4 trials of standard T-maze test (Shoji et al, J. Vis. Exp. (60), e3300, DOI: 10.3791/3300 (2012)) on day 1 or day 21 of Mg-EPA, Mg Citrate, or EPA feeding. Rats are subjected to either forced alternation task or left-right discrimination task. Behaviors in the T-maze apparatus is recorded and statistically analyzed by two way repeated measures analysis of variance. […]\nZn-DHA composition is provided as supplement in standard rat feed. […] Behaviors in the T-maze apparatus is recorded and statistically analyzed by two way repeated measures analysis of variance. […]"}, "[3]": {"assay": "Zn levels in cerebrospinal fluid of rats fed Zn compositions", "assay_type": "in vivo, Sprague-Dawley rats", "settings": "oral gavage, about 1 mg elemental zinc per kg per day for 3 weeks, compared with Zinc gluconate", "method": "Sprague-Dawley rats are fed various […] compositions by oral gavage so as to provide about 1 mg elemental zinc per kg per day for 3 weeks. The zinc compositions include Zn-DHA, Zn-DHA-LysoPC and Zn-EPA. Control rats were administered equivalent molar amount of zinc gluconate. Cerebrospinal fluid is collected at the end of the treatment, and zinc is measured by atomic absorption spectroscopy."}, "[4]": {"settings": "150 mg elemental magnesium for two weeks"}, "[5]": {"settings": "about 50 mg/Kg/day elemental Mg for 21 days, compared with the fatty acid alone or Mg Citrate"}, "[6]": {"settings": "30 mg elemental zinc daily for two weeks, compared with the fatty acid alone or zinc gluconate"}, "[7]": {"settings": "about 1 mg/kg/day elemental Zn for 21 days, compared with the fatty acid alone or zinc gluconate"}}, "data": [{"smiles": "CC/C=C\\C/C=C\\C/C=C\\C/C=C\\C/C=C\\C/C=C\\CCC(=O)[O-].CC/C=C\\C/C=C\\C/C=C\\C/C=C\\C/C=C\\C/C=C\\CCC(=O)[O-].[Mg+2]", "note": "[Mg-DHA]", "values": [{"measurement": "Hamilton Depression Rating scale and Beck Depression Inventory scores", "setting": "[1]; [4]", "value": "statistically significant improvement"}, {"measurement": "ability to recognize novel objects", "setting": "[2]; [5]", "value": "statistically significant improvement"}]}, {"smiles": "CC/C=C\\C/C=C\\C/C=C\\C/C=C\\C/C=C\\C/C=C\\CCC(=O)[O-].CC/C=C\\C/C=C\\C/C=C\\C/C=C\\C/C=C\\C/C=C\\CCC(=O)[O-].[Zn+2]", "note": "[Zn-DHA]", "values": [{"measurement": "Hamilton Depression Rating scale and Beck Depression Inventory scores", "setting": "[1]; [6]", "value": "statistically significant improvement"}, {"measurement": "CSF levels of Zn", "setting": "[3]", "value": "higher"}, {"measurement": "ability to recognize novel objects", "setting": "[2]; [7]", "value": "statistically significant improvement"}]}, {"smiles": "CC/C=C\\C/C=C\\C/C=C\\C/C=C\\C/C=C\\CCCC(=O)[O-].CC/C=C\\C/C=C\\C/C=C\\C/C=C\\C/C=C\\CCCC(=O)[O-].[Zn+2]", "note": "[Zn-EPA]", "values": [{"measurement": "Hamilton Depression Rating scale and Beck Depression Inventory scores", "setting": "[1]; [6]", "value": "statistically significant improvement"}, {"measurement": "CSF levels of Zn", "setting": "[3]", "value": "higher"}, {"measurement": "ability to recognize novel objects", "setting": "[2]; [7]", "value": "statistically significant improvement"}]}, {"smiles": "CC/C=C\\C/C=C\\C/C=C\\C/C=C\\C/C=C\\CCCC(=O)[O-].CC/C=C\\C/C=C\\C/C=C\\C/C=C\\C/C=C\\CCCC(=O)[O-].[Mg+2]", "note": "[Mg-EPA]", "values": [{"measurement": "Hamilton Depression Rating scale and Beck Depression Inventory scores", "setting": "[1]; [4]", "value": "statistically significant improvement"}, {"measurement": "ability to recognize novel objects", "setting": "[2]; [5]", "value": "statistically significant improvement"}]}]}
